Source: article PMC8746695, “Zinc-Chelating Compounds as Inhibitors of Human and Bacterial Zinc Metalloproteases” (Molecules, 2021)

Assays:
[1] = target: T1, MMP-14 (Homo sapiens, UniProt P50281); experiment: Time-dependent slow, reversible/irreversible binding of TPA to MMP-14 (pre-incubation and micro-dialysis); type: biochemical; conditions: for vi/v0 MMP-14: 100 μM TPA
T1 construct: human MT1-MMP/MMP-14 (catalytic domain); purchased Calbiochem (San Diego, CA, USA)
Description: We tested if TPA is a time-dependent irreversible or reversible inhibitor of MMP-14. In these experiments, two different concentrations of MMP-14 (45 and 5.6 nM) were pre-incubated up to 48 min at 37 °C with 10.0 and 11.1 μM of TPA, respectively, as described in Materials and Methods. As controls, the same amount of MMP-14 (without TPA but with the same concentration of DMSO) was identically pre-incubated at 37 °C. […] In the presence of 100 μM TPA, vi/v0 was 0.61 after 2 min and 0.03 after 11 min pre-incubation at 37 °C. To determine whether the observed time-dependent inhibition was due to reversible or irreversible inhibition, a solution of 45 nM MMP-14 was first pre-incubated for approximately 40 min at 37 °C with 10 μM TPA (1% DMSO in assay buffer, pH 7.5). As a control, MMP-14 (without TPA but with the same concentration of DMSO) was also pre-incubated for approximately 40 min at 37 °C. […]
In pre-incubation tests with high concentration of MMP-14, 90 μL 50 nM MMP-14 was mixed with 9.0 μL 110 μM TPA (dissolved in 0.1 M Hepes pH 7.5 containing 10 mM CaCl2, 0.005% Brij-35 and 10% DMSO) and incubated at 37 °C for up to 48 min. […] At different time points, 10 μL of the enzyme (with and without TPA) was added to 90 μL of 0.1 M Hepes pH 7.5 containing 10 mM CaCl2, 0.005% Brij-35 and 11.1 μM ES001 and the initial rate reaction velocity (v) was determined as described in Section 3.4. using a Perkin Elmer LS 50 Luminescence spectrometer. […]
In pre-incubation tests with a low concentration of MMP-14, 60 μL 50 nM MMP-14 was mixed with 420 μL 0.1 M Hepes pH 7.5 (containing 10 mM CaCl2, 0.005% Brij-35) and 60 μL of either 0.1 M Hepes pH 7.5 containing 10 mM CaCl2, 0.005% Brij-35 and 10% DMSO (control) or 60 μL 100 μM TPA (dissolved in 0.1 M Hepes pH 7.5 containing 10 mM CaCl2, 0.005% Brij-35 and 10% DMSO). At different time points, 90 μL of the enzyme (with and without TPA) was mixed with 10 μL 100 μM ES001 and the initial rate of the reaction was determined as described above. […]

[2] = in solution; read-out: Kd for zinc; cited from earlier work

## c1ccc(CN(Cc2ccccn2)Cc2ccccn2)nc1 [TPA, tri(2-pyridinemethyl)amine, reference compound]
[1]; 2 min pre-incubation at 37 °C
  vi/v0 MMP-14: 0.61
[1]; 11 min pre-incubation at 37 °C
  vi/v0 MMP-14: 0.03
[1]; pre-incubation 37 °C, micro-dialysis 4 °C
  type of inhibition of MMP-14: slow, reversible inhibitor
[2]
  Kd: ~0.01 nM
